The target in this experiment is T1, Recombinant human HSP90α (Homo sapiens, UniProt P07900).
T1 construct: host or cells: E. coli
Briefly: HSP90 radioligand filter binding test, competition with [3H]17AAG. The note with it: [3H]17AAG 0.08 μM; HSP90 1.5 μg/assay; 22° C., 30 min; read-out: HSP90 inhibition IC50. The source says: The binding of geldanamycin or 17-allylamino-17-demethoxygeldanamycin (17AAG) to HSP90 and competitive inhibition thereof can be utilised in order to determine the inhibitory activity of the compounds according to the invention (Carreras et al. 2003, Chiosis et al. 2002).
In the specific case, a radioligand filter binding test is used. The radioligand used here is tritium-labelled 17-allylaminogeldanamycin, [3H]17AAG. This filter binding test allows a targeted search for inhibitors which interfere with the ATP binding site.
• Recombinant human HSP90α (E. coli expressed, 95% purity); • [3H]17AAG (17-allylaminogeldanamycin, [allylamino-2,3-^3H. Specific activity: 1.11×10^12 Bq/mmol (Moravek, MT-1717); • HEPES filter buffer (50 mM HEPES, pH 7.0, 5 mM MgCl2, BSA 0.01%) Multiscreen FB (1 μm) filter plate (Millipore, MAFBNOB 50). Method
The 96-well microtitre filter plates are firstly irrigated and coated with 0.1% of polyethylenimine.
The test is carried out under the following conditions: • Reaction temperature 22° C. • Reaction time: 30 min., shaking at 800 rpm • Test volume: 50 μl • Final concentrations: • 50 mM HEPES HCl, pH 7.0, 5 mM MgCl2, 0.01% (w/v) BSA • HSP90:1.5 μg/assay • [3H]17AAG: 0.08 μM.
At the end of the reaction, the supernatant in the filter plate is removed by suction with the aid of a vacuum manifold (Multiscreen Separation System, Millipore), and the filter is washed twice.
The filter plates are then measured in a beta counter (Microbeta, Wallac) with scintillator (Microscint 20, Packard).
“% of control” is determined from the “counts per minutes” values and the IC-50 value of a compound is calculated therefrom.

In US7943637B2, “Thienopyridine derivatives and the use thereof as HSP90 modulators” (Merck Patent GmbH, priority 2005, dated 2011) one finds IC50 data, which are given here for 12 molecules.

Structures are written as SMILES.

With `COc1ccc(-c2c(C#N)c(N)nc3sc(C(N)=O)c(N)c23)cc1OC` [Compound A1, 2-aminocarbonyl-3,6-diamino-5-cyano-4-(3,4-dimethoxyphenyl)thieno[2,3-b]pyridine], the IC50 (usually the midpoint of a concentration-inhibition curve) came to 1000 nM.

With `CCOC(=O)CCCCCOc1cc(-c2c(C#N)c(N)nc3sc(C(N)=O)c(N)c23)ccc1OC` [Compound A4, 2-aminocarbonyl-3,6-diamino-5-cyano-4-[3-(5-ethoxycarbonylpentyloxy)-4-methoxyphenyl]thieno[2,3-b]pyridine], the IC50 came to 2500 nM.

As for `CCOC(=O)CCCCOc1cc(-c2c(C#N)c(N)nc3sc(C(N)=O)c(N)c23)ccc1OC` [Compound A7, 2-aminocarbonyl-3,6-diamino-5-cyano-4-[3-(4-ethoxycarbonylbutoxy)-4-methoxyphenyl]thieno[2,3-b]pyridine], the IC50 stood at 1500 nM.

`COc1ccc(-c2c(C#N)c(N)nc3sc(C(N)=O)c(N)c23)cc1OCCCCC(=O)O` [Compound A7a, 2-aminocarbonyl-3,6-diamino-5-cyano-4-[3-(4-carboxybutoxy)-4-methoxyphenyl]thieno[2,3-b]pyridine]: the IC50 amounted to 650 nM.

Take `COc1ccc(-c2c(C#N)c(N)nc3sc(C(N)=O)c(N)c23)cc1OCCCCCC(=O)O` [Compound A7b, 2-aminocarbonyl-3,6-diamino-5-cyano-4-[3-(5-carboxypentyloxy)-4-methoxyphenyl]thieno[2,3-b]pyridine]: the IC50 turned out to be 890 nM.

Take `CCOC(=O)CCCOc1cc(-c2c(C#N)c(N)nc3sc(C(N)=O)c(N)c23)ccc1OC` [Compound A7c, 2-aminocarbonyl-3,6-diamino-5-cyano-4-[3-(3-ethoxycarbonylpropoxy)-4-methoxyphenyl]thieno[2,3-b]pyridine]: the IC50 amounted to 1300 nM.

Take `CCOC(=O)c1sc2nc(N)c(C#N)c(-c3ccc(OC)c(OC)c3)c2c1N` [Compound A9, 2-ethoxycarbonyl-3,6-diamino-5-cyano-4-(3,4-dimethoxyphenyl)thieno[2,3-b]pyridine]: the IC50 was 14000 nM.

For the molecule `COc1ccc(-c2c(C#N)c(N)nc3sc(C(N)=O)c(N)c23)cc1OCc1ccccc1C` [Compound A11], the IC50 amounted to 1400 nM.

As for `COc1ccc(-c2c(C#N)c(N)nc3sc(C(N)=O)c(N)c23)cc1OCc1cccc(C(F)(F)F)c1` [Compound A21], the IC50 was 780 nM.

Consider `COc1ccc(-c2c(C#N)c(N)nc3sc(C(N)=O)c(N)c23)cc1OCC(N)=O` [Compound A30], for which the IC50 amounted to 3300 nM.

As for `COc1ccc(-c2c(C#N)c(N)nc3sc(C(N)=O)c(N)c23)cc1OCc1ccc(C(=O)O)cc1` [Compound A689], the IC50 came out at 740 nM.

As to `COc1ccc(-c2c(C#N)c(N)nc3sc(C(N)=O)c(N)c23)cc1OCc1cccc(OC(F)F)c1` [Compound A693], the IC50 was 670 nM.
